We go through seven molecules from US20250333394A1, “Tiparp Inhibitor Compounds” (AbbVie Inc., priority 2024, published 2025).

The target in assay [1] is TIPARP GST-(TEV) (Homo sapiens (Human), UniProt Q7Z3E1). Nature of the assay: TR-FRET binding assay, TIPARP. As to conditions: for IC50: TR-FRET, Probe 1, 2 hours incubation; for PARP1/TIPARP IC50 Ratio: ratio of PARP1 GST IC50 to TIPARP GST-(TEV) IC50. The source says: The full-length cDNA encoding the human TIPARP (NP_001171647.1, UniProtKB-Q7Z3E1) of 657 amino acids was the template to generate the expression construct. […] The TIPARP fusion protein includes GST, glutathione S-transferase, a 26 kDa protein whose DNA sequence is frequently integrated into expression vectors for production of recombinant proteins. A […], was cloned into vector pFastBacTM 1 (Thermo Fisher Scientific) with an N-terminal GST tag followed by a TEV protease site to produce the TIPARP fusion protein, TIPARP GST-(TEV). TR-FRET assays were used to measure the binding of compounds to TIPARP and PARP1, and to characterize biochemical selectivity. Compound stock solutions (10 mM) were serially diluted in 3-fold increments in dimethyl sulfoxide (DMSO). Diluted compounds were dispensed (30 nL) into white ProxiPlate-384-well plates (PerkinElmer, Waltham, MA, USA) using an ECHO® 550 acoustic Labcyte dispenser (Beckman-Coulter Life Sciences, Indianapolis, IN, USA) to achieve a final starting concentration of 30 μM to 0.5 nM in the assay. This was followed by addition of 5 μL of 2× protein/probe mix (Table 2) made in assay buffer (Tris-HCl 50 mM pH 8.0; 5 mM MgCl2; 5 μM ZnCl2; 1 mM DTT (dithiothreitol); 0.15% BSA (bovine serum albumin) (w/v); and 0.01% TritonX-100 (w/v)) at final concentrations listed in Table 2. Subsequently, 5 μL of 2× antibody (Tb-labeled anti-GST antibody, Thermo Fisher Scientific, Waltham, MA, USA) in HEPES buffered saline was added to each well at a final concentration of 1 nM. The samples were then incubated for 2 hours under ambient conditions. Fluorescence was measured and TR-FR ET ratios were determined on an EnVision multimode plate reader (PerkinElmer) using a 520 nanometer (nm) excitation wavelength and collecting fluorescence emission at 495 nm. […] [table]
(TR-FRET usually uses a lanthanide donor and a delayed reading to cut background.)

The target of assay [2] is PARP1 GST (Homo sapiens (Human), UniProt P09874). The assay is described as follows: TR-FRET binding assay, PARP1. The conditions noted are these: Probe 2, 2 hours incubation. As for the experimental part:
TR-FRET assays were used to measure the binding of compounds to TIPARP and PARP1, and to characterize biochemical selectivity. Compound stock solutions (10 mM) were serially diluted in 3-fold increments in dimethyl sulfoxide (DMSO). Diluted compounds were dispensed (30 nL) into white ProxiPlate-384-well plates (PerkinElmer, Waltham, MA, USA) using an ECHO® 550 acoustic Labcyte dispenser (Beckman-Coulter Life Sciences, Indianapolis, IN, USA) to achieve a final starting concentration of 30 μM to 0.5 nM in the assay. This was followed by addition of 5 μL of 2× protein/probe mix (Table 2) made in assay buffer (Tris-HCl 50 mM pH 8.0; 5 mM MgCl2; 5 μM ZnCl2; 1 mM DTT (dithiothreitol); 0.15% BSA (bovine serum albumin) (w/v); and 0.01% TritonX-100 (w/v)) at final concentrations listed in Table 2. Subsequently, 5 μL of 2× antibody (Tb-labeled anti-GST antibody, Thermo Fisher Scientific, Waltham, MA, USA) in HEPES buffered saline was added to each well at a final concentration of 1 nM. The samples were then incubated for 2 hours under ambient conditions. Fluorescence was measured and TR-FR ET ratios were determined on an EnVision multimode plate reader (PerkinElmer) using a 520 nanometer (nm) excitation wavelength and collecting fluorescence emission at 495 nm.

Assay [3] has as its system NCI-H1373 cells. The assay is described as follows: NCI-H1373 CellTiter-Glo cell assay for TIPARP inhibition. The class given is cell-based, human. The conditions noted are these: Homo sapiens, NCI-H1373, 144 h; 6 days, 100 nM 10-Cl-BBQ in medium; read-out: NCI-H1373 CTG EC50. As for the experimental part:
The NCI-H1373 CellTiter-Glo® assay was used to determine cell numbers after TIPARP inhibition-induced cell cycle arrest, and enabled screening of compounds for cellular TIPARP inhibition potency.
Compound stock solutions (10 mM) were serially diluted in 3-fold increments in dimethyl sulfoxide. Sample aliquots (120 nL) were dispensed into Corning® 384-well Flat Clear Bottom White Polystyrene TC-treated Microplates (Corning Life Sciences, Corning, NY, USA) using an ECHO® 550 acoustic Labcyte dispenser (Beckman-Coulter Life Sciences, Indianapolis, IN, USA) to achieve final concentrations between 30 μM and 0.5 nM in the assay. This was followed by the addition of 40 μL of 1000 NCI-H1373 cells (ATCC®, Manassas, VA, USA) in complete growth medium RPMI 1640 growth medium (Thermo Fisher Scientific, Waltham, MA, USA) supplemented with 20 mg/L L-glutamate, 25 mM HEPES (4-(2-hydroxyethyl)-1-piperazineethanesulfonic acid), 10% (v/v) heat inactivated FBS (fetal bovine serum), 1% (w/v) penicillin-streptomycin, and 100 nM 10-Cl-BBQ (10-chloro-7H-benzimidazo[2,1-a]benz[de]isoquinolin-7-one, (Tocris, Minneapolis, MN, USA). Duplicate cell plates with 40 μL cells/well along with various concentrations of compounds were kept in Nunc™ Square BioAssay Dishes (Thermo Fisher Scientific) at 98% relative humidity in a 5% C02 incubator at 37° C. for 6 days. On day 7, plates were moved to ambient lab conditions for 10 minutes until the temperature equilibrated. Following equilibration, CellTiter-Glo® Luminescent Cell Viability Assay reagent (Promega™, Madison, WI, USA) was added (15 μL) to each well of the plates. After a 20 minutes incubation, luminescence was detected using a ViewLux™ microplate imager (PerkinElmer, Waltham, MA, USA). Data analysis was performed using GraphPad Prism (Dotmatics, Boston, MA, USA).
On the technique in general: Cellular ATP, detected with luciferase, serves as a proxy for viable cell number.

The test system of assay [4] is DLD-1 parent cells. The assay is described as follows: CellTiter-Glo DLD-1 parent cell assay. The class given is cell-based. As to conditions: Homo sapiens, 144 h, 6 days, read-out: DLD-1 CTG EC50. The source says:
(§1) The DLD-1 BRCA2 (−/−) CellTiter-Glo® assay measured the synthetic lethality of PARP1/2 inhibitors and was used as a surrogate to allow measurement of activity of both PARP1 and PARP2 in cells. If PARP1 and PARP2 are inhibited and are trapped onto chromatin during DNA replication, there is replication fork stalling and accumulation of double strand breaks. In BR CA wild-type cells, the resulting double strand DNA breaks are repaired via homologous recombination. In cells with mutation of BRCA1 or BRCA2, homologous recombination repair of DNA double strand breaks is defective, and cell death occurs after PARP1/2 inhibitor treatment (Lord C J, Ashworth A. PARP inhibitors: synthetic lethality in the clinic. Science. 2017 Mar. 17; 355(6330):1152-1158). Testing compounds in viability assays with the DLD-1-BR CA 2 (−/−) and DLD-1 parent cell enabled assessment on PARP1/2-dependent (cytotoxicity in the BRCA2 (−/−) cells only) vs. non-selective cytotoxicity in both cell lines.
(§2) Compound stock solutions (10 mM) were serially diluted in 3-fold increments in dimethyl sulfoxide (DMSO). Sample aliquots (120 nL) were dispensed into Corning® 384-well Flat Clear Bottom White Polystyrene TC-treated Microplates (Corning Life Sciences, Corning, NY, USA) using an ECHO® 550 acoustic Labcyte dispenser (Beckman-Coulter Life Sciences, Indianapolis, IN, USA) to achieve concentrations between 30 μM and 0.5 nM in the assay. In the assay, 40 μL of 500 DLD-1 parent cells (HORIZON® Therapeutics, Deerfield, IL, USA) or 40 μL of 1200 DLD-1-BRCA2 (−/−) cells (HORIZON Therapeutics) in complete growth medium containing RPMI 1640 growth medium (ThermoFisher Scientific, Waltham, MA, USA) supplemented with 20 mg/L L-glutamate, 25 mM HEPES (4-(2-hydroxyethyl)-1-piperazineethanesulfonic acid), 10% (v/v) heat inactivated FBS (fetal bovine serum), and 1% (w/v) Penicillin-Streptomycin were added.
(§3) Duplicate cell plates with 40 μL cells/well along with various concentrations of compounds were kept in Nunc™ Square BioAssay Dishes (Thermo Fisher Scientific) at 98% relative humidity in a 5% CO2 incubator at 37° C. for 6 days. On day 7, plates were moved to ambient lab conditions for 10 minutes until the temperature equilibrated. Following equilibration, CellTiter-Glo® Luminescent Cell Viability Assay reagent (Promega™, Madison, WI, USA) was added (15 μL) to each well of the plates. After a 20 minutes incubation, luminescence was detected using a ViewLux™ microplate imager (PerkinElmer, Waltham, MA, USA). Data analysis was performed using GraphPad Prism (Dotmatics, Boston, MA, USA).

Assay [5] has as its system DLD-1 BRCA2 (−/−) cells. Nature of the assay: CellTiter-Glo DLD-1 BRCA2 (−/−) cell assay for PARP1/2 inhibition. The conditions noted are these: Homo sapiens, 144 h, 6 days, read-out: DLD-1 BRCA2 (−/−) CTG EC50. The class given is cell-based.
Description: as §1, §2, §3

PARP1 GST, sequence (P09874 whole entry): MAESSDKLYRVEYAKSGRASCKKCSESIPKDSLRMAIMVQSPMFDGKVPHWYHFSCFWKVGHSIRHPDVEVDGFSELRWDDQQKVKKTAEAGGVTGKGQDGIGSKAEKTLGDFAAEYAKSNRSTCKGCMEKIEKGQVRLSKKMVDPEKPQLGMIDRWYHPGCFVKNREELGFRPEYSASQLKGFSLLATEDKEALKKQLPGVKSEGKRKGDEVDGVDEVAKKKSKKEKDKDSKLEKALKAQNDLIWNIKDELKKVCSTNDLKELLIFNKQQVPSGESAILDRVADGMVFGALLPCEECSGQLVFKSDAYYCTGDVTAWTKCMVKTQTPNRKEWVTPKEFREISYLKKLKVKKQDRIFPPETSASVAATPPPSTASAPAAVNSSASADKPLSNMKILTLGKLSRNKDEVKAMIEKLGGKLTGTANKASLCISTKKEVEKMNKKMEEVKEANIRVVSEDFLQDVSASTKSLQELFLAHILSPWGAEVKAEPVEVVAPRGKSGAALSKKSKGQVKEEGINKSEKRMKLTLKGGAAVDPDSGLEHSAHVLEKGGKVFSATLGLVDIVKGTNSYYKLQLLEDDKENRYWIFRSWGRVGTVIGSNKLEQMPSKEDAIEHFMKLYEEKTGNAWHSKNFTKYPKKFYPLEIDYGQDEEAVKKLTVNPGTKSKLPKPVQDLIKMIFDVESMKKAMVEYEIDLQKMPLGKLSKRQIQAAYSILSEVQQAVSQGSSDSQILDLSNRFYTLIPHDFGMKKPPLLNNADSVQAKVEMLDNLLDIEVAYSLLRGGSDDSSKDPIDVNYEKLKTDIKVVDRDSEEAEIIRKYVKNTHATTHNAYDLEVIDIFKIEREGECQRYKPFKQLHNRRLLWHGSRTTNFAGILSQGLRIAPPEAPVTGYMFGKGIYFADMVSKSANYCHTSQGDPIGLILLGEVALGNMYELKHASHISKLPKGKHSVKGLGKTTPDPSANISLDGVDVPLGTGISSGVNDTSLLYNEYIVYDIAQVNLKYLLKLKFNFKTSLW
TIPARP GST-(TEV), sequence (Q7Z3E1 441-657): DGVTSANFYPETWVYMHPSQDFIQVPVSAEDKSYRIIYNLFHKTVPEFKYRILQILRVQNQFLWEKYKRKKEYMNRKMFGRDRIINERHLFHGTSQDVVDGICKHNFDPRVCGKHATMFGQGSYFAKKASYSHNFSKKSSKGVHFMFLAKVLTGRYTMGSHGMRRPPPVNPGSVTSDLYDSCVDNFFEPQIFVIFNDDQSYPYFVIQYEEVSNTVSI

Usually IC50 stands for the concentration that inhibits the measured activity by half. Turning to `C[C@@H]1CN(c2ncc(C(F)(F)F)cn2)C[C@H](C)N1C(=O)[C@H]1C[C@@H](c2c[nH]c(=O)c(C(F)(F)F)c2)C1` [Example 2, 5-[(1s,3s)-3-{(2R,6S)-2,6-dimethyl-4-[5-(trifluoromethyl)pyrimidin-2-yl]piperazine-1-carbonyl}cyclobutyl]-3-(trifluoromethyl)pyridin-2(1H)-one], the IC50 in assay [1] worked out at 3.75 nM; in assay [2] it was 5020 nM. Further, the “PARP1/TIPARP IC50 Ratio” value in assay [1] turned out to be 1340. Besides, the EC50 in assay [3] worked out at 32.2 nM; in assay [4], 22100 nM; in assay [5], 16500 nM.
`C[C@@H]1CN(C(=O)[C@H]2C[C@@H](c3c[nH]c(=O)c(C(F)(F)F)c3)C2)CCN1c1ncc(C(F)(F)F)cn1` [Example 3, 5-[(1S,3s)-3-{(3R)-3-methyl-4-[5-(trifluoromethyl)pyrimidin-2-yl]piperazine-1-carbonyl}cyclobutyl]-3-(trifluoromethyl)pyridin-2(1H)-one]: the IC50 in assay [1] was determined as 4.74 nM; in assay [2], 504 nM. Also, the “PARP1/TIPARP IC50 Ratio” value in assay [1] is 106. For the same molecule, the figures for the EC50 in assay [3], in assay [4] and in assay [5] were 9.65 nM, more than 30000 nM and 5030 nM, respectively.
As for `C[C@@H]1CN(C(=O)[C@H]2C[C@@H](c3c[nH]c(=O)c(C(F)(F)F)c3)C2)C[C@H](C)N1c1ncc(C(F)(F)F)cn1` [Example 4, 5-[(1s,3s)-3-{(3R,5S)-3,5-dimethyl-4-[5-(trifluoromethyl)pyrimidin-2-yl]piperazine-1-carbonyl}cyclobutyl]-3-(trifluoromethyl)pyridin-2(1H)-one], the results for the IC50 in assay [1] and in assay [2] were 5.7 nM and 3120 nM, respectively. For the same molecule, the “PARP1/TIPARP IC50 Ratio” value in assay [1] is 547. Further, the EC50 was 11.1 nM in assay [3], 23900 nM in assay [4] and 7170 nM in assay [5].
With `C[C@@H]1CN(C(=O)[C@H]2C[C@@H](c3c[nH]c(=O)c(C(F)(F)F)c3)C2)C[C@H](C)N1c1ncc(C(C)(C)O)cn1` [Example 5, 5-[(1s,3s)-3-{(3R,5S)-4-[5-(2-hydroxypropan-2-yl)pyrimidin-2-yl]-3,5-dimethylpiperazine-1-carbonyl}cyclobutyl]-3-(trifluoromethyl)pyridin-2(1H)-one], the IC50 in assay [1] stood at 2.3 nM; in assay [2], 2240 nM. In assay [1], the “PARP1/TIPARP IC50 Ratio” value is 974. In addition, the EC50 in assay [3] is 34.4 nM; in assay [4] it was more than 30000 nM; in assay [5], 20500 nM.
Consider `C[C@H]1CN(c2ncc(C(F)(F)F)cn2)CCN1C(=O)[C@H]1C[C@@H](c2c[nH]c(=O)c(C(F)(F)F)c2)C1` [Example 6, 5-[(1R,3s)-3-{(2S)-2-methyl-4-[5-(trifluoromethyl)pyrimidin-2-yl]piperazine-1-carbonyl}cyclobutyl]-3-(trifluoromethyl)pyridin-2(1H)-one], for which the IC50 was 3.43 nM in assay [1] and 283 nM in assay [2]. For the same molecule, the “PARP1/TIPARP IC50 Ratio” value in assay [1] was 82.5. Besides, the EC50 in assay [3] is 45.4 nM; in assay [4], 14400 nM; in assay [5], 1130 nM.
`C[C@@H]1CN(C(=O)[C@H]2C[C@@H](c3c[nH]c(=O)c(C(F)(F)F)c3)C2)CCN1c1ncc(C(C)(C)O)cn1` [Example 7, 5-[(1S,3s)-3-{(3R)-4-[5-(2-hydroxypropan-2-yl)pyrimidin-2-yl]-3-methylpiperazine-1-carbonyl}cyclobutyl]-3-(trifluoromethyl)pyridin-2(1H)-one]: the IC50 in assay [1] stood at 3.79 nM; in assay [2], 1580 nM. Moreover, the “PARP1/TIPARP IC50 Ratio” value in assay [1] was 417. Besides, the EC50 in assay [3] was 71.7 nM; in assay [4] it was more than 30000 nM; in assay [5], 17200 nM.
Take `C[C@H]1CN(C(=O)[C@H]2C[C@@H](c3c[nH]c(=O)c(C(F)(F)F)c3)C2)CCN1c1ncc(C(F)(F)F)cn1` [Example 8, 5-[(1R,3s)-3-{(3S)-3-methyl-4-[5-(trifluoromethyl)pyrimidin-2-yl]piperazine-1-carbonyl}cyclobutyl]-3-(trifluoromethyl)pyridin-2(1H)-one]: the IC50 in assay [1] was found to be 8.79 nM; in assay [2], 1200 nM. For the same molecule, the “PARP1/TIPARP IC50 Ratio” value in assay [1] is 137. The EC50 in assay [3] is 55.9 nM; in assay [4] it was more than 30000 nM; in assay [5], 5730 nM.
